Test results: patent US20240360114A1 (SIRONAX LTD., priority 2021, published 2024)

Test system: HT-1080 cells
Assay: HT-1080 cell viability assay (ferroptosis induced by RSL3, Cell Titer-Glo)
Format: cell-based
Details: Homo sapiens, HT-1080, 20 h, ferroptosis inducer RSL3, 20 hours, ferroptosis inhibitory activity
In short: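 EC50 fitted by sigmoidal dose-response regression on luminescent viability data normalized to untreated cells. Compounds ran as a 10-point, 3-fold series from 1.1 μM alongside RSL3 for 20 hours, after overnight seeding.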

SMILES	EC50 (Table 2) [µM]	EC50 (Table 3) [µM]
NC1CCC(Nc2ccc3nc(N4CCC(C(F)(F)F)CC4)cnc3c2)CC1 (stereo not drawn) [Compound 573, N1-(2-(4-(trifluoromethyl)piperidin-1-yl)quinoxalin-6-yl)cyclohexane-1,4-diamine]	0.0001 to 0.1	
Cc1cc(NC2CC3(CC(N)C3)C2)ccc1N1CCN(CC(F)(F)F)CC1 (stereo not drawn) [Compound 574, N^2-(3-methyl-4-(4-(2,2,2-trifluoroethyl)piperazin-1-yl)phenyl)spiro/3.3/heptane-2.6-diamine]		0.0001 to 0.1
CC[C@@H]1CN(c2ccc(NC3CC4(C3)CC(C(N)=O)C4)c(C)n2)C[C@H](CC)O1 (stereo partly drawn) [Compound 575, 6-((6-((2S,6R)-2,6-diethylmorpholino)-2-methylpyridin-3-yl)amino)spiro[3.3]heptane-2-carboxamide]		0.0001 to 0.1
CC[C@@H]1CN(c2ccc(NC3CC(N)C3)c(C)n2)C[C@H](CC)O1 (stereo partly drawn) [Compound 576, N1-(6-((2S,6R)-2,6-diethylmorpholino)-2-methylpyridin-3-yl)cyclobutane-1,3-diamine]		0.0001 to 0.1
Cc1nc(N2C[C@@H](C)N(CC(F)(F)F)[C@@H](C)C2)ccc1NC1C[C@H]2CC(N)C[C@H]2C1 (stereo partly drawn) [Compound 577, (3aR,6aS)-N2-(6-((3R,5S)-3,5-dimethyl-4-(2.2,2-trifluoroethyl)piperazin-1-yl)-2-methylpyridin-3-yl)octahydropentalene-2,5-diamine]		0.0001 to 0.1
Cc1nc(N2C[C@@H](C)O[C@@H](C)C2)ccc1NCCC[C@H]1C[C@@H](N)C1 [Compound 578, N-(3-((1s,3R)-3-aminocyclobutyl)propyl)-6-((2S,6R)-2,6-dimethylmorpholino)-2-methylpyridin-3-amine]		0.0001 to 0.1
CC1CN(c2ccc(NC3CC4(CC(N)C4)C3)c(F)n2)CC(C)N1CC(F)(F)F (stereo not drawn) [Compound 579, N2-(6-(3,5-dimethyl-4-(2,2,2-trifluoroethyl)piperazin-1-yl)-2-fluoropyridin-3-yl)spiro[3.3]heptane-2,6-diamine]		0.0001 to 0.1
CC1CN(c2ncc(NC3CC4(CC(N)C4)C3)cc2F)CC(C)N1CC(F)(F)F (stereo not drawn) [Compound 580, N^2-(6-(3.5-dimethyl-4-(2,2,2-trifluoroethyl)piperazin-1-yl)-5-fluoropyridin-3-yl)spiro[3.3]hept ane-2,6-diamine]		0.0001 to 0.1
Cc1nc(N2CCC3(CCCOC3)CC2)ccc1NC[C@H]1CC[C@H](N)CC1 [Compound 581, N-(((1r,4r)-4-aminocyclohexyl)methyl)-2-methyl-6-(2-oxa-9-azaspiro [5.5]undecan-9-yl)pyridin-3-amine]		0.0001 to 0.1
Cc1nc(N2CCC3(CCOCC3)CC2)ccc1NC[C@H]1CC[C@H](N)CC1 [Compound 582, N-(((1r,4r)-4-aminocyclohexyl)methyl)-2-methyl-6-(3-oxa-9-azaspiro [5.5]undecan-9-yl)pyridin-3-amine]		0.0001 to 0.1
C[C@@H]1CN(c2ccc3cc(NCC[C@H]4C[C@H](N)C4)ccc3c2)C[C@H](C)O1 [Compound 583, N-(2-((1r,3S)-3-aminocyclobutyl)ethyl)-6-((2S,6R)-2,6-dimethylmorpholino) naphthalen-2-amine]		0.0001 to 0.1
NC(=O)C1CC2(CC(Nc3ccc4cc(N5CCC(C(F)(F)F)CC5)ccc4c3)C2)C1 (stereo not drawn) [Compound 584, 6-((6-(4-(trifluoromethyl)piperidin-1-yl)naphthalen-2-yl)amino)spiro[3.3]heptane-2-carboxamide]		0.0001 to 0.1
Cc1nc(N2C[C@@H](C)O[C@@H](C)C2)ccc1NC1C2CC3CC1CC(CNCCO)(C3)C2 (stereo partly drawn) [Compound 585]		0.0001 to 0.1
N[C@H]1CC[C@H](CNc2ccc(N3CCN(CC(F)(F)F)CC3)cc2F)CC1 [Compound 586, N-(((1r,4r)-4-aminocyclohexyl)methyl)-2-fluoro-4-(4-(2,2,2-trifluoroethyl)piperazin-1-yl)aniline]		0.0001 to 0.1
Cc1nc(N2C3CCC2CC3)ccc1NC1CC2(CC(N)C2)C1 (stereo not drawn) [Compound 587, N2-(6-(7-azabicyclo[2.2.1]heptan-7-yl)-2-methylpyridin-3-yl)spiro[3.3]heptane-2,6-diamine]		0.1 to 1
Cc1nc(N2CC(C)OC(C(F)(F)F)C2)ccc1NC1CC2(CC(N)C2)C1 (stereo not drawn) [Compound 588]		0.0001 to 0.1
Cc1nc(N2CC(C)(C)OC(C)(C)C2)ccc1NC1CC2(CC(NCC(F)(F)F)C2)C1 (stereo not drawn) [Compound 589]		0.0001 to 0.1
CCC1CN(c2ccc(NC3C4CC5CC3CC(C(N)=O)(C5)C4)c(C)n2)CCO1 (stereo not drawn) [Compound 590]		0.1 to 1
COC(C)(C)C1CCN(c2ccc(NC3CC(N)C3)c(C)n2)CC1 (stereo not drawn) [Compound 591]		0.1 to 1
NC1CC(Nc2ccc3nc(N4CCC(C(F)(F)F)CC4)ccc3c2)C1 (stereo not drawn) [Compound 592, N1-(2-(4-(trifluoromethyl)piperidin-1-yl)quinolin-6-yl)cyclobutane-1,3-diamine]		0.0001 to 0.1
NC1CC(Nc2ccc3cc(N4CCN(CC(F)(F)F)CC4)ccc3c2)C1 (stereo not drawn) [Compound 593, N^1-(6-(4-(2,2,2-trifluoroethyl)piperazin-1-yl)naphthalen-2-yl)cyclobutane-1,3-diamine]		0.0001 to 0.1

SMILES	EC50 (Table 2) [µM]	EC50 (Table 3) [µM]
Cc1nc(N2CCC(C3CC(C)OC(C)C3)CC2)ccc1NC1CC2(CC(N)C2)C1 (stereo not drawn) [Compound 594, N^2-(6-(4-(2,6-dimethyltetrahydro-2H-pyran-4-yl)piperidin-1-yl)-2-methylpyridin-3-yl)spiro[3.3]heptane-2,6-diamine]		0.0001 to 0.1
Cc1nc(NC(C)(C)C)ccc1NC[C@H]1CC[C@H](N)CC1 [Compound 595, N^5-(((1r,4r)-4-aminocyclohexyl)methyl)-N^2-(tert-butyl)-6-methylpyridine-2,5-diamine]		0.0001 to 0.1
Cc1nc(NC(C)(C)C)ccc1NC1CC2(CC(N)C2)C1 (stereo not drawn) [Compound 596, N^5-(6-aminospiro [3.3]heptan-2-yl)-N^2-(tert-butyl)-6-methylpyridine-2,5-diamine]		0.0001 to 0.1
Cc1cc(NC(C)(C)C)ccc1NC[C@H]1CC[C@H](N)CC1 [Compound 597, N^1-(((1r,4r)-4-aminocyclohexyl)methyl)-N^4-(tert-butyl)-2-methylbenzene-1,4-diamine]		0.0001 to 0.1
Cc1nc(N2CC(C)OC(C(F)(F)F)C2)ccc1NC[C@H]1CC[C@@H](N)CC1 (stereo partly drawn) [Compound 598, N-(((1s,4s)-4-aminocyclohexyl)methyl)-2-methyl-6-(2-methyl-6-(trifluoromethyl)morpholino)pyridin-3-amine]		0.0001 to 0.1
Cc1nc(N2CCC(C(C)(C)O)CC2)ccc1NC1CC2(CC(N)C2)C1 (stereo not drawn) [Compound 599]		0.1 to 1
CC(=O)N1C(C)CN(c2ccc(NC3CC4(CC(N)C4)C3)c(C)n2)CC1C (stereo not drawn) [Compound 600]		0.1 to 1
CN(C)c1ccc2cc(NC3CC4(CC(N)C4)C3)ccc2c1 (stereo not drawn) [Compound 601, N2-(6-aminospiro[3.3]heptan-2-yl)-N^6,N^6-dimethylnaphthalene-2,6-diamine]		0.0001 to 0.1
Cc1nc(N2CCC(C)(C)CC2)ccc1NC1CC2(CC(N)C2)C1 (stereo not drawn) [Compound 602, N2-(6-(4,4-dimethylpiperidin-1-yl)-2-methylpyridin-3-yl)spiro[3.3]heptane-2,6-diamine]		0.0001 to 0.1
Cc1nc(N2CCN(CC(F)(F)F)C(C)C2)ccc1NC1CC2(CC(NC(N)=O)C2)C1 (stereo not drawn) [Compound 603]		0.0001 to 0.1
CC1CN(c2ccc(NC3CC(N)C3)cc2F)CC(C)N1CC(F)(F)F (stereo not drawn) [Compound 604, N1-(4-(3,5-dimethyl-4-(2,2,2-trifluoroethyl)piperazin-1-yl)-3-fluorophenyl)cyclobutane-1,3-diamine]		0.0001 to 0.1
CNC1CC2(C1)CC(Nc1ccc(N3C[C@@H](C)O[C@@H](C)C3)nc1C)C2 (stereo partly drawn) [Compound 605, N^2-(6-((2R,6S)-2,6-dimethylmorpholino)-2-methylpyridin-3-yl)-N^6-methylspiro [3.3]heptane-2,6-diamine]		0.0001 to 0.1
Cc1nc(N2CCN(C)C(C(F)(F)F)C2)ccc1NC1CC2(CC(N)C2)C1 (stereo not drawn) [Compound 606, N2-(2-methyl-6-(4-methyl-3-(trifluoromethyl)piperazin-1-yl)pyridin-3-yl)spiro[3.3]heptane-2,6-diamine]		0.0001 to 0.1
CC(=O)N1CCN(CCNc2ccc(N3CC(C)OC(C)C3)nc2C)CC1 (stereo not drawn) [Compound 607, 1-(4-(2-((6-(2,6-dimethylmorpholino)-2-methylpyridin-3-yl)amino)ethyl)piperazin-1-yl)ethan-1-one]		0.1 to 1
Cc1nc(N2CC[Si](C)(C)CC2)ccc1NC1CC(N)C1 (stereo not drawn) [Compound 608, N1-(6-(4,4-dimethyl-1,4-azasilinan-1-yl)-2-methylpyridin-3-yl)cyclobutane-1,3-diamine]		0.0001 to 0.1
CCCc1nc(N2C[C@@H](C)O[C@@H](C)C2)ccc1NC1CC2(CC(N)C2)C1 (stereo partly drawn) [Compound 609, N2-(6-((2S, 6R)-2,6-dimethylmorpholino)-2-propylpyridin-3-yl)spiro[3.3]heptane-2,6-diamine]		0.0001 to 0.1
CC1CN(c2ccc3cc(NC4CC5(CC(O)C5)C4)ccc3c2)CC(C)N1CC(F)(F)F (stereo not drawn) [Compound 610]		0.0001 to 0.1
Cc1nc(N2CCN(C(=O)C(F)(F)F)C(C)C2)ccc1NC1CC2(CC(N)C2)C1 (stereo not drawn) [Compound 611, 1-(4-(5-((6-aminospiro[3.3]heptan-2-yl)amino)-6-methylpyridin-2-yl)-2-methylpiperazin-1-yl)-2,2,2-trifluoroethan-1-one]		0.0001 to 0.1
Cc1cc(NC2CC(N)C2)ccc1N1CC(C)N(CC(F)(F)F)C(C)C1 (stereo not drawn) [Compound 612, N1-(4-(3,5-dimethyl-4-(2,2,2-trifluoroethyl)piperazin-1-yl)-3-methylphenyl)cyclobutane-1,3-diamine]		0.0001 to 0.1
CC(C)c1nc(N2C[C@@H](C)O[C@@H](C)C2)ccc1NC1CC2(CC(N)C2)C1 (stereo partly drawn) [Compound 613, N^2-(6-((2S, 6R)-2,6-dimethylmorpholino)-2-isopropylpyridin-3-yl)spiro[3.3]heptane-2,6-diamine]		0.0001 to 0.1
NC1CC2(C1)CC(Nc1ccc3cc(N4CCOCC4)ccc3c1)C2 (stereo not drawn) [Compound 614, N2-(6-morpholinonaphthalen-2-yl)spiro[3.3]heptane-2,6-diamine]		0.0001 to 0.1
